Assays:
PRMT1 [1] = target: T1, PRMT1 (Homo sapiens, UniProt Q99873); experiment: Active PRMT1 in MCF-7 nuclear extracts after estrogen stimulation; format: cell-based; conditions: 10 nM E2, 5 minute time point
PRMT1 [2] = target: T1, PRMT1; experiment: Active PRMT1 in MCF-7 cytoplasmic extracts after estrogen stimulation; format: cell-based
PRMT1 [3] = conditions: ref [15]–[17]; cited from earlier work

T1 sequence (Q99873 whole entry): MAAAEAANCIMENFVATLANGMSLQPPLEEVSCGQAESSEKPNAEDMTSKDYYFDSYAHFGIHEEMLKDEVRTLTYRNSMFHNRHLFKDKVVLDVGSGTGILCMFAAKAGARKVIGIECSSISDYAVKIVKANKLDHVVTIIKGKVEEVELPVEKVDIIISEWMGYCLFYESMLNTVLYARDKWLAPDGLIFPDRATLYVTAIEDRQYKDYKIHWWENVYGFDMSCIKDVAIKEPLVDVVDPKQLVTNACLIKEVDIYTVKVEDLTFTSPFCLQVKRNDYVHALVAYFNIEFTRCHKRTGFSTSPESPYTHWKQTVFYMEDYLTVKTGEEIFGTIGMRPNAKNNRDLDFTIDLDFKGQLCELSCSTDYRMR

| Substance | maximum reduction of active PRMT1 in nucleus (PRMT1 [1]) [fold] | increase of active PRMT1 in cytoplasm (PRMT1 [2]; 10 nM E2, 5 minutes after addition, MCF-7) [fold] | time of maximum active PRMT1 in cytoplasm (PRMT1 [2]; 10 nM E2, MCF-7) [min] | time of return of active cytoplasmic PRMT1 to basal levels (PRMT1 [2]; 10 nM E2, MCF-7) | total PRMT1 levels in cytosolic and nuclear extracts (loading control) after estrogen (PRMT1 [2]; 10 nM E2, MCF-7, 10% loading control, Figure 6A lower panel) | PRMT1 substrate quality (PRMT1 [3]) |
| --- | --- | --- | --- | --- | --- | --- |
| estrogen | 3 | 2.5 | 10 | ~ 15 minutes | remain constant |  |
| AcH4-21: peptide which consists of the first 21 amino acids of histone H4, highly efficient PRMT1 substrate |  |  |  |  |  | highly efficient PRMT1 substrate |

Reference: PMC3199286 (ACS chemical biology, 2011)
